Data published in US20240166603A1, “Method of Treating Cancer With Atpenin A5 Derviatives” (Texas Tech University System, priority 2018, published 2024).
Converted amounts (≈) assume the structure as drawn.

Experiments:
in vivo = conditions: 1 mg/kg
[1] = molecular target: Complex I (NADH ubiquinone-oxidoreductase) (Mus musculus, UniProt P03888+Q91WD5+Q9DC70); assay: Complex I inhibition assay, mouse cardiac mitochondria; conditions: Table 3
[2] = test system: WPMY-1 prostate stromal cells; assay: Cytotoxicity, WPMY-1 prostate stromal cells; type: cell-based; conditions: Homo sapiens
LNCaP cells = assay: Potentiation of Enzalutamide in LNCaP cells (FIG. 9); type: cell-based
[3] = test system: 22Rv1 prostate cancer cells; assay: Cytotoxicity MTS assay, 22Rv1
[4] = molecular target: T1, mitochondrial complex II (CII) (Rattus norvegicus, UniProt P21913+Q641Z9+Q6PCT8)
[5] = test system: PC3 prostate cancer cells; assay: Cytotoxicity MTS assay, PC3; conditions: Homo sapiens, 48 h, read-out: PC3 IC50
[6] = test system: PC3 prostate cancer cells under hypoxia; assay: Cell death under hypoxia, microfluidic chip, Annexin V and Sytox Green; conditions: 10 μM, hypoxia
3T3 cells = assay: Cytotoxicity, 3T3 mouse embryonic fibroblast cells; type: cell-based; conditions: NIH3T3
HEK293 cells = assay: Cytotoxicity MTS assay, HEK293
[7] = molecular target: T1, mitochondrial complex II (CII); assay: Complex II inhibition assay, isolated rat heart mitochondria; conditions: conversion of the nM value
[8] = test system: DU-145 prostate cancer cells; assay: Cytotoxicity MTS assay, DU-145; conditions: Homo sapiens, DU-145, 48 h, read-out: DU-145 IC50
22Rv1 cells = assay: Metabolic parameters, Seahorse XF Extracellular Flux Analyzer; type: cell-based, human; conditions: 48 hour incubation
Experimental: Next, the inventors determined the effect of complex II inhibition by the developed inhibitors on mitochondrial metabolic processes. The effect of 16c on electron transport parameters of 22Rv1 cells after 48 hour incubation was studied using a Seahorse XF Extracellular Flux Analyzer.
Assessment of Metabolic Parameters. Changes in oxygen consumption rate were measured using a XF24 Extracellular Flux Analyzer (Seahorse Bioscience, Billerica, MA). 22Rv1 cells were plated in XF24-well plates (40,000 cells/well) and allowed to adapt overnight. Treatments were performed with 16c at concentrations of 1, 10, 20, 30, 50 and 100 μg/mL and incubated for 48 hours. Mito Stress test was performed using oligomycin (10 μM), FCCP (5 μM) and Rotenone/Antimycin A (5 μM) based on the manufacturer's recommended protocol.

T1 sequence (P21913 31-282): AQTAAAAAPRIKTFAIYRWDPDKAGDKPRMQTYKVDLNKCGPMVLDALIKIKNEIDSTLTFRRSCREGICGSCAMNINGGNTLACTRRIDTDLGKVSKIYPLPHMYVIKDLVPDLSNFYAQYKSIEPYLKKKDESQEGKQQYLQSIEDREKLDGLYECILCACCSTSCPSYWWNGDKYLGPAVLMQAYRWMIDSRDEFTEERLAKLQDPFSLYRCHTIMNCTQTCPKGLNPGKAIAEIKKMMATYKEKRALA
T1 sequence (Q641Z9 30-169 limits assumed): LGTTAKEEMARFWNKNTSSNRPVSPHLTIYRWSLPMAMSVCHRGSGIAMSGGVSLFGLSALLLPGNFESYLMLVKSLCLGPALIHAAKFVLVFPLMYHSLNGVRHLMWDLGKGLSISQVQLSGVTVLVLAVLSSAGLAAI
T1 sequence (Q6PCT8 57-159): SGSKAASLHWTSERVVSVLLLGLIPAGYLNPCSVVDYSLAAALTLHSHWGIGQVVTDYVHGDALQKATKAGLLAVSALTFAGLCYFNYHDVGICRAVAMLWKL
T1 sequence (Q920L2 35-656 partner): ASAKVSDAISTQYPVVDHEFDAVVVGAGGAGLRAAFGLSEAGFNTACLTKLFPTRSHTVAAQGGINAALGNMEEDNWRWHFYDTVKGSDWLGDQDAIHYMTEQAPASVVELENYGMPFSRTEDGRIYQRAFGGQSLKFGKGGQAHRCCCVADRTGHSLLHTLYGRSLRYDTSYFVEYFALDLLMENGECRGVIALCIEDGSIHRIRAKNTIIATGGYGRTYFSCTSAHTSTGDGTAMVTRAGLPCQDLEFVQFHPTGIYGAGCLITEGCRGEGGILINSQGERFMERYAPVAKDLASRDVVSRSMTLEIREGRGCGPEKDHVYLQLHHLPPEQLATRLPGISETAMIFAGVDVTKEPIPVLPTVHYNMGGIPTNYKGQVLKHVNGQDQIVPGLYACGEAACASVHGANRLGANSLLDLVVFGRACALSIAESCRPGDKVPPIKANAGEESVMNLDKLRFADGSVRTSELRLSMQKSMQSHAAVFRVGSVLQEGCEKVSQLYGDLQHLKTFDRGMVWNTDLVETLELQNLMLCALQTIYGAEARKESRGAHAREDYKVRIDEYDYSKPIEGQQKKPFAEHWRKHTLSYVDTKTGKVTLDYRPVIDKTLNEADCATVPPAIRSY

## CCCCCC(=O)c1c(O)nc(OC)c(OC)c1O [Compound 16c, 1-(2,4-dihydroxy-5,6-dimethoxypyridin-3-yl)hexan-1-one]
In vivo
  AUC: 19.6 ng·h/mL
  Vd: 89.5 L/kg
  half-life: 103 min
  Tmax: 22.8 min
In vivo; AUCinf,obs
  AUC(0-inf): 8.3 ng·h/mL
In vivo; AUCinf,pred
  AUC(0-inf): 8.32 ng·h/mL
In vivo; female
  AUCinf,obs: 23.61 ng·h/mL
  AUCinf,pred: 23.63 ng·h/mL
  t1/2λz: 104 min
  Cmax: 140 ng/mL
  Tmax: 15 min
In vivo; female, AUCinf,obs
  AUC(0-inf): 36 ng·h/mL
In vivo; female, AUCinf,pred
  AUC(0-inf): 36 ng·h/mL
In vivo; male
  Vssobs: 134.64772 L/kg
  Vsspred: 129.16994 L/kg
  t1/2λz: 103 min
  Cmax: 23.9 ng/mL
  Tmax: 30 min
In vivo; male, AUCinf,obs
  AUC(0-inf): 10.7 ng·h/mL
In vivo; male, AUCinf,pred
  AUC(0-inf): 10.6 ng·h/mL
[1]
  Selectivity Ratio (CII:CI): >156
[2]
  IC50: 18.4 µg/mL (≈ 68.3 µM)
LNCaP cells
  effect on Enzalutamide (ENZA) in LNCaP cells: potentiates Enzalutamide
[3]; Homo sapiens, 22Rv1, 48 h, read-out: 22Rv1 IC50
  IC50: 11 µg/mL (≈ 40.8 µM)
[3]; MTS, 48 hours unless otherwise noted
  22Rv1 IC50: 11 µg/mL
[3]; cell line not given
  increase in efficacy relative to Enzalutamide, inhibition of cancer growth in vitro: 10 fold
[4]
  LLE (Ligand-Lipophilicity Efficiency): 5.62
[5]
  IC50: 38 µg/mL (≈ 141 µM)
[6]
  cell death: 20%
3T3 cells
  IC50: 31.8 µg/mL (≈ 118 µM)
HEK293 cells; 16c: DU-145 and 22Rv1, 16k: 22Rv1
  selectivity for prostate cancer cells over HEK293: 7.4 fold
HEK293 cells; Homo sapiens, HEK293, 48 h, read-out: HEK293 IC50
  IC50: 81 µg/mL (≈ 301 µM)
[7]
  CII IC50 expressed: 0.01723 µg/mL
[8]
  IC50: 12 µg/mL (≈ 44.6 µM)
22Rv1 cells
  ATP production: inhibition of ATP production
  basal respiration: reducing basal respiration
  maximal respiration: reduction of maximal respiration
  oxygen consumption rate: substantially reduced in a dose-dependent manner
